Publication PMC9606187, “Dual HDAC/BRD4 Inhibitors Relieves Neuropathic Pain by Attenuating Inflammatory Response in Microglia After Spared Nerve Injury” (Neurotherapeutics, 2022)

How the values were obtained:
SNI mice [1] = assay: Rotarod test; format: in vivo; conditions: 50 µM i.n., vs vehicle-treated SNI mice
Experimental: The possible alteration of motor performance induced by each treatment was assessed by rotarod test, as previously described. The integrity of motor coordination was assessed as number of falls from the rod in 30 s.

SNI mice [2] = assay: Hole-board test; format: in vivo; conditions: 50 µM i.n., vs vehicle-treated SNI mice
Experimental: The spontaneous locomotor behavior was evaluated by using the hole-board test. Movements of the animal on the plane represent the spontaneous mobility, and the head-dips in the holes by the mice represent the exploratory activity.

SNI mice [3] = assay: Observation of sedation or motor dysfunction; format: in vivo; conditions: single administration 50 µM i.n.
[4] = Intrinsic fluorescence of the compound in spinal cord after i.n. delivery; format: in vivo, mice
Source text: On postsurgical day 14, animals were perfused transcardially with 4% paraformaldehyde in 0.1 M phosphate buffer (PBS, pH 7.4). After perfusion, lumbar spinal cord was quickly removed and processed as previously described. Four animals per groups were used for this analysis. […] Primary antibody used was IBA1 (1:100; Santa Cruz Biotechnology Cat# sc-32725, RRID:AB_667733). […] A Leica DM6000B fluorescence microscope equipped with a DFC350FX digital camera with appropriate excitation and emission filters for each fluorophore was used to acquire representative images. […] The immunofluorescence intensity was calculated by ImageJ (Wayne Rasband, National Institute of Health, USA).
Co-localization of two different labels was measured using EzColocalization plugin (ImageJ). The extent of co-localization was determined by calculating the Mander’s overlap coefficient (MOC) and the Pearson’s correlation coefficient (PCC). […] PCC quantify the correlation between individual fluorophores considering their intensities. PCC is characterized by determined value range: −1, which indicate anticolocalization; +1, which indicates colocalization; 0, which indicates there is no colocalization.

BRD4 = assay: Western blot of lumbar spinal cord, BRD4; format: in vivo, mice; conditions: SNI ipsilateral side, day 7 and 14 post-surgery, i.n.
Experimental: (§1) The lumbar spinal cord was removed 7 and 14 days after surgery and 90 min after the intranasal administration of SUM52, corresponding to the peack of the effect. Samples (n = 4 for groups) were homogenized in a homogenization buffer and processed as previously described. Protein samples (40 µg of protein/sample) were separated on 10% SDS-PAGE and transferred onto nitrocellulose membranes (120 min at 100 V) using standard procedures. Membranes were blocked in PBST (PBS containing 0.1% Tween) containing 5% nonfat dry milk for 120 min. […] Blots were then extensively washed and developed using enhanced chemiluminescence detection system (Pierce, Milan, Italy) and signal intensity (pixels/mm^2) quantified (ImageJ, NIH). […] For each sample, the signal intensity was normalized to that of total protein stained by Ponceau S and the acquired images were quantified using Image Lab software. […]

HDAC1 = assay: Western blot of lumbar spinal cord, HDAC1; format: in vivo, mice; conditions: SNI ipsilateral side, day 7 and 14 post-surgery, i.n.
Experimental: as §1

IBA1 (microglia marker) = assay: Immunofluorescence of lumbar spinal cord, IBA1; format: in vivo; conditions: lumbar spinal cord of SNI mice, day 14
Experimental: On postsurgical day 14, animals were perfused transcardially with 4% paraformaldehyde in 0.1 M phosphate buffer (PBS, pH 7.4). After perfusion, lumbar spinal cord was quickly removed and processed as previously described. Four animals per groups were used for this analysis. […] Primary antibody used was IBA1 (1:100; Santa Cruz Biotechnology Cat# sc-32725, RRID:AB_667733). After rinsing in PBS containing 0.01% Triton-X-100, sections were incubated in secondary antibodies labeled with Invitrogen Alexa Fluor 488 (490–525, 1:400; Thermo Fisher Scientific), Invitrogen Alexa Fluor 568 (578–603, 1:400; Thermo Fisher Scientific), Cruz Fluor 594 (592–614, 1:400; Santa Cruz Biotechnology) at room temperature for 2 h. Sections were coverslipped using Vectorshield mounting medium (Vector Laboratories, Burlingame, CA). A Leica DM6000B fluorescence microscope equipped with a DFC350FX digital camera with appropriate excitation and emission filters for each fluorophore was used to acquire representative images. Images were acquired with × 5 to × 40 objectives using a digital camera. The immunofluorescence intensity was calculated by ImageJ (Wayne Rasband, National Institute of Health, USA).

IL-6 = assay: Western blot of lumbar spinal cord, IL-6; format: in vivo, mice; conditions: SNI ipsilateral side, day 7 and 14
Experimental: as §1

SMILES: Cc1nnc2n1-c1ccccc1C(c1ccccc1)=N[C@H]2CC(=O)NCCCCCCC(=O)NO [SUM52, (S)-N-hydroxy-7-(2-(1-methyl-6-phenyl-4H-benzo[f][1,2,4]triazolo[4,3-a][1,4]diazepin-4-yl)acetamido)heptanamide]
- motor coordination (rotarod test) (SNI mice [1]): no alteration
- exploratory activity (hole board test) (SNI mice [2]): no alteration
- spontaneous mobility (hole board test) (SNI mice [2]): no alteration
- apparent sedation or motor dysfunction (SNI mice [3]): No animal showed apparent sedation or motor dysfunction
- distribution to spinal cord (intrinsic fluorescence) ([4]; after i.n. delivery, vs vehicle-treated mice): able to reach the spinal cord and diffuse into the tissue
- intrinsic fluorescence in microglial cells ([4]; spinal cord sections of SNI mice, IBA1 co-staining): detected in IBA1 positive microglial cells
- spinal BRD4 protein expression (BRD4): restored both epigenetic enzyme levels to control values
- spinal HDAC1 protein expression (HDAC1): restored both epigenetic enzyme levels to control values
- IBA1 immunostaining (IBA1 (microglia marker)): significantly reduced
- IL-6 expression (IL-6): drastically reduced
